According to ChEMBL document CHEMBL5230154, “Chemical probe of AHL modulators on quorum sensing in Gram-Negative Bacteria and as antiproliferative agents: A review” (Eur J Med Chem, 2021):

Legend:
[1] = test system: Pseudomonas aeruginosa; assay: Antibiofilm activity against Pseudomonas aeruginosa PAO1 NCTC 10332 assessed as inhibition of biofilm formation incubated for 24 hrs by crystal violet staining based assay; type: functional, organism-based; details: PAO1 NCTC 10332, 24 h
[2] = Inhibition of quorum sensing system in Pseudomonas aeruginosa PAO1 assessed as inhibition of RhlR expression incubated for 4 hrs by RT-PCR analysis
[3] = test system: Pseudomonas aeruginosa; assay: Anti-motility activity against Pseudomonas aeruginosa PAO1 NCTC 10332 assessed as reduction in swimming at 50 uM and measured after 18 hr; type: functional; parameters: scale not given: the % may be the effect or the level left
[4] = Inhibition of quorum sensing system in Pseudomonas aeruginosa PAO1 assessed as inhibition of pqsR expression incubated for 4 hrs by RT-PCR analysis
[5] = Inhibition of quorum sensing system in Pseudomonas aeruginosa PA14 assessed as inhibition of pyocyanin production by UV-vis spectrophotometric assay
[6] = test system: Pseudomonas aeruginosa; assay: Anti-motility activity against Pseudomonas aeruginosa PAO1 NCTC 10332 assessed as reduction in swarming at 50 uM and measured after 16 hr by swarming assay; type: functional; parameters: scale not given: the % may be the effect or the level left
[7] = Antagonist activity against quorum sensing system in Pseudomonas aeruginosa PAO1 transfected with lasB-lacZ reporter gene assessed as inhibition of beta-galactosidase activity incubated for 24 hrs by elastin-Congo red assay
[8] = Antagonist activity against quorum sensing system in Pseudomonas aeruginosa PAO1 transfected with rhlA-lacZ reporter gene assessed as inhibition of beta-galactosidase activity incubated for 24 hrs by elastin-Congo red assay

SMILES	IC50 [1]	IC50 [2]	Activity [3]	IC50 [4]	IC50 [5]	Activity [6]	IC50 [7]	IC50 [8]
Clc1ccc2c(NCCCCCCCCNCc3cc4ccccc4o3)ccnc2c1	50 µM	40 µM	40%	25 µM	12 µM	40%	–	–
CCCCCCCCCC(=O)NC1CCCC1 [N-CYCLOPENTYLDECANAMIDE]	–	–	–	–	–	–	80 µM	90 µM
